According to patent US5789447A, “Nitric oxide releasing compounds as protective agents in ischemia reperfusion injury” (priority 1995, dated 1998):

Assays:
[1] = system: Chinese hamster V79 lung fibroblasts; assay: V79 clonogenic survival, hypoxanthine/xanthine oxidase (HX/XO) cytotoxicity; conditions: 1 mM
Description: Chinese hamster V79 lung fibroblasts were cultured in F12 medium supplemented with 10% fetal calf serum and antibiotics. Cell survival was assessed by clonogenic assay with 85-95% plating efficiency. Stock cultures of exponentially growing cells were trypsinized, rinsed, and plated (7×10^5 cells/dish) into a number of 100 cm^2 petri dishes and incubated 16 hr at 37° C. prior to experimental protocols.
It has been shown that exposure of V79 cells to hydrogen peroxide results in dose-dependent cytotoxicity (Mitchell et al., supra).
HX and XO were purchased from Boehringer Co. (Indianapolis, Ind.). Nitrite, diethylamine, sulfinamide, diethylenetriaminepentaacetic acid (DETAPAC) and N-(1-naphthyl)ethylenediaminedihydrogenchloride (NEDD) were purchased from Aldrich (Milwaukee, Wis.). Cytosine-β-D-arabinofuranoside and ferricytochrome c were purchased from Sigma (St. Louis, Mo.). DEA/NO and SPER/NO were synthesized as previously described (Maragos et al., (1991), supra).
Exponentially growing cultures of Chinese hamster V79 fibroblasts were exposed to either HX/XO (final concentration of HX was 0.5 mM; 0.08 units/ml XO were used) for various amounts of time (FIG. 1A) or to various concentrations of hydrogen peroxide for one hour (FIG. 1B). […] Additionally, 1 mM DEA/NO was added to medium in the absence of cells, incubated at 37° C. for 1 hr or 16 hrs, and then added just prior to the addition of hydrogen peroxide to evaluate the effects of DEA/NO which had released NO. After treatment, cell monolayers were rinsed twice with phosphate-buffered saline (PBS), trypsinized, counted and plated in triplicate for macroscopic colony formation. Each dose determination was plated in triplicate and experiments were repeated a minimum of two times. Plates were incubated for 7 days, after which colonies were fixed with methanol/acetic acid (3:1), stained with crystal violet, and counted. Colonies containing more than 50 cells were scored.

rat mesenteric venules = assay: Venular diameter, RBC velocity and wall shear rate after ischemia reperfusion; format: in vivo; conditions: 100 μM in superfusate
Description: (§1) Male Sprague-Dawley rats weighing 200-250 g apiece were maintained on a purified laboratory diet and fasted for 24 hours prior to each experiment. The animals were initially anesthetized with pentobarbital (65 mg/kg body weight) and then a tracheotomy was performed to facilitate breathing during subsequent experimentation. The right carotid artery was cannulated and system arterial pressure was measured with a Statham P23A pressure transducer (Oxnard, Calif.) connected to the carotid artery cannula. Systemic blood pressure and heart rate were continuously recorder with a Grass physiologic recorded (Grass Instruments).
(§2) Rats were placed in a supine position on an adjustable plexiglass microscope stage and the mesentery was prepared for microscopic observation as described previously (Asako et al., Gastroenterology, 103, 146-152 (1992); Kurose et al., Circ. Res., in press (1993)). Briefly, the mesentery was draped over a non-fluorescent coverslip that allowed for observation of a 2 cm^2 segment of tissue. The exposed bowel wall was covered with Saran Wrap (Dow Chemical Co.) and the mesentery was superfused with bicarbonate-buffered saline (pH 7.4, 37° C.) that was bubbled with a mixture of 5% CO2 and […].
(§3) An inverted microscope (TMD-25, Diaphoto, Nikon, Tokyo, Japan) with a 40x objective lens (Fluor, Nikon) was used to observe the mesenteric microcirculation. The mesentery was transilluminated with a 12 V-100 W direct current-stabilized light source. A video camera (VK-C150, Hitachi, Ibaragi, Japan) mounted on the microscope projected the image onto a color monitor (PVM-2030, Sony, Tokyo, Japan) and the images were recorded using a videocassette record (NV8950, Panasonic, Tokyo, Japan). A video time-date generator (WJ810, Panasonic) projected the time, date and stopwatch function onto the monitor.
(§4) Single unbranched venules with diameters ranging between 25 and 35 μm and length greater than 150 μm were selected for study. Venular diameter (DV) was measured either on- or off-line using a video caliper (Microcirculation Research Institute, Texas A&M University, College Station, Tex.). Red blood cell centerline velocity (VRBC) was measured in venules using an optical Dopper velocimeter (Microcirculation Research Institute, Texas A&M University, College Station, Tex.). The velocimeter was calibrated against a rotating glass disk coated with red blood cells. Venular blood flow was calculated from the product of mean red blood cell velocity (Vmean =centerline velocity/1.6; Davis, Microvasc. Res., 34, 223-230 (1987)) and microvascular cross-sectional area, assuming cylindrical geometry. Wall shear rate (γ) was calculated based on the Newtonian definition γ=8(Vmean /D).
After all parameters measured on-line were in a steady state, images from the mesenteric preparation were recorded on videotape for 10 min. […] The mesentery was made ischemic for zero (sham ischemia) or 20 min. After the ischemic period, the ligation was gently removed. In some experiments, either sodium nitroprusside (SNP, 100 μM, Sigma Chemical), spermine-NO (SpNO, 100 μM), SIN-1 (100 μM), spermine (SP, 100 μM, Sigma Chemical), or NG-nitro-L-arginine methyl ester (L-NAME, 100 μM, Sigma Chemical) was added to the superfusate and the same protocol was employed. Spermine-NO and SIN-1, which are NO donors, were obtained from the National Institutes of Health, Bethesda, Md. […]

leukocytes = assay: Leukocyte adherence and emigration after ischemia reperfusion (mesenteric venules); format: in vivo, rat; conditions: 20 min ischemia, 10 and 30 min reperfusion; 100 μM; FIG. 4B
Description: as §1, §2, §3, §4
The number of adherent leukocytes was determined off-line during playback of videotape images. A leukocyte was considered to be adherent to venular endothelium if it remained stationary for a period equal to or greater than 30 seconds (Granger et al., Am. J. Physiol., 257, G683-G688 (1989)). Adherent cells were expressed as the number per 100 μm length of venule. The number of emigrated leukocytes was also determined off-line during playback of videotape images. Any interstitial leukocytes present in the mesentery at the onset of the experiment were subtracted from the total number of leukocytes that accumulated during the course of the experiment. Leukocyte emigration was expressed as the number per field of view surrounding the venule. Platelet-leukocyte aggregates, which were visible within postcapillary venules, were quantitated and expressed as the number of aggregates crossing a fixed point within the venule over a 5 min period. Mast cells in the microvascular beds of the rat mesenteries were visualized by using 0.1% toluidine blue. The number of normal and degranulated mast cells was determined and the percentage of degranulated mast cells was calculated.

mesenteric venules = assay: Albumin leakage across mesenteric venules after ischemia reperfusion; format: in vivo, rat; conditions: 10 min and 30 min after reperfusion; 100 μM; FIG. 4C
Description: as §1, §2, §3
as §4, with “The velocimeter was calibrated against a rotating glass disk coated with red blood cells.” left out
After all parameters measured on-line were in a steady state, images from the mesenteric preparation were recorded on videotape for 10 min. […]

[2] = system: platelet-leukocyte aggregates; assay: Platelet-leukocyte aggregates after ischemia reperfusion; format: in vivo, rat; conditions: 20 min ischemia, 30 min reperfusion; 100 μM; FIG. 6
Description: as §1, with “Instruments). […]” for “Instruments).”
(§5) An inverted microscope (TMD-25, Diaphoto, Nikon, Tokyo, Japan) with a 40x objective lens (Fluor, Nikon) was used to observe the mesenteric microcirculation. […] A video camera (VK-C150, Hitachi, Ibaragi, Japan) mounted on the microscope projected the image onto a color monitor (PVM-2030, Sony, Tokyo, Japan) and the images were recorded using a videocassette record (NV8950, Panasonic, Tokyo, Japan). […]
Single unbranched venules with diameters ranging between 25 and 35 μm and length greater than 150 μm were selected for study. Venular diameter (DV) was measured either on- or off-line using a video caliper (Microcirculation Research Institute, Texas A&M University, College Station, Tex.). […] Wall shear rate (γ) was calculated based on the Newtonian definition γ=8(Vmean /D). […]

mast cells = assay: Degranulation of microvascular mast cells after ischemia reperfusion; format: in vivo, rat; conditions: 20 min ischemia, 30 min reperfusion; 100 μM; FIG. 7
Description: as §1, §2, §5
as §4, with “The velocimeter was calibrated against a rotating glass disk coated with red blood cells.” left out
The number of adherent leukocytes was determined off-line during playback of videotape images. […] Adherent cells were expressed as the number per 100 μm length of venule. The number of emigrated leukocytes was also determined off-line during playback of videotape images. […] Leukocyte emigration was expressed as the number per field of view surrounding the venule. […]

intestinal mucosa = assay: Intestinal blood to lumen 51Cr-EDTA clearance (mucosal permeability) in cat small intestine transplant; format: in vivo, cats
small intestine = assay: Water absorption in cat small intestine transplant; format: in vivo, cats; conditions: during 120 min of reperfusion; 0.1 mmol; vs untreated; FIG. 10
microvasculature [3] = assay: Lymph flow and lymph protein clearance in cat small intestine transplant; format: in vivo, cats
microvasculature [4] = assay: Capillary pressure and vascular resistance in cat small intestine transplant; format: in vivo, cats; conditions: FIG. 13
[5] = NO release rate / half-life; format: physicochemical; conditions: vs DEA/NO

Question: For NCCCNCCCCN(CCCN)/[N+]([O-])=N/O [SpNO, spermine-NO], which “protection against HX/XO-induced cell killing” value [1] is on record?
Answer: protected V79 cells against HX/XO induced cytotoxicity but to a lesser extent than DEA/NO

Question: What about the “reversal of decrease in RBC velocity after reperfusion” value (rat mesenteric venules; in words) of the same compound?
Answer: reversed the decreases

Question: What about the “reversal of decrease in wall shear rate after reperfusion” value (rat mesenteric venules; in words) of the same compound?
Answer: reversed the decreases

Question: What about the RBC velocity (rat mesenteric venules; 30 min after reperfusion) of the same compound?
Answer: 3.06 ± 0.28 mm/sec

Question: And the Venular diameter (rat mesenteric venules; 30 min after reperfusion)?
Answer: 31.8 ± 2.1 μm

Question: What about the Wall Shear Rate (rat mesenteric venules; 30 min after reperfusion) of the same compound?
Answer: 480 ± 27 s⁻¹

Question: What about the “reduction of number of emigrated leukocytes” value (leukocytes) of the same compound?
Answer: 64-71%

Question: And the “attenuation of albumin leakage” value (mesenteric venules)?
Answer: 70%

Question: And the platelet-leukocyte aggregate formation [2]?
Answer: reduced

Question: And the “degranulation of microvascular mast cells” value (mast cells)?
Answer: significantly inhibited

Question: What about the “mucosal permeability (51Cr-EDTA clearance)” value (intestinal mucosa; 6-hr hypothermic ischemia, 120 min reperfusion, FIG. 9) of the same compound?
Answer: decreased

Question: And the 51Cr-EDTA clearance (intestinal mucosa; at 75 and 90 min, 0.1 mmol luminal perfusate)?
Answer: statistically significant decrease

Question: And the water absorption (small intestine)?
Answer: increased significantly

Question: And the lymph flow (microvasculature [3]; FIG. 11)?
Answer: Increased lymph flow

Question: What about the lymph protein clearance (microvasculature [3]; FIG. 12) of the same compound?
Answer: increased lymph protein clearance

Question: What about the capillary pressure (microvasculature [4]) of the same compound?
Answer: Significant elevation

Question: What about the “NO release, times slower than DEA/NO” value [5] of the same compound?
Answer: 40 times
